The target of the test is T1, human full-length glucocorticoid receptor (Homo sapiens, UniProt P04150).
T1 construct: recombinantly expressed human full-length glucocorticoid receptor; purchased PanVera Co., Madison, Wis; P2816
T1 sequence (P04150 1-777): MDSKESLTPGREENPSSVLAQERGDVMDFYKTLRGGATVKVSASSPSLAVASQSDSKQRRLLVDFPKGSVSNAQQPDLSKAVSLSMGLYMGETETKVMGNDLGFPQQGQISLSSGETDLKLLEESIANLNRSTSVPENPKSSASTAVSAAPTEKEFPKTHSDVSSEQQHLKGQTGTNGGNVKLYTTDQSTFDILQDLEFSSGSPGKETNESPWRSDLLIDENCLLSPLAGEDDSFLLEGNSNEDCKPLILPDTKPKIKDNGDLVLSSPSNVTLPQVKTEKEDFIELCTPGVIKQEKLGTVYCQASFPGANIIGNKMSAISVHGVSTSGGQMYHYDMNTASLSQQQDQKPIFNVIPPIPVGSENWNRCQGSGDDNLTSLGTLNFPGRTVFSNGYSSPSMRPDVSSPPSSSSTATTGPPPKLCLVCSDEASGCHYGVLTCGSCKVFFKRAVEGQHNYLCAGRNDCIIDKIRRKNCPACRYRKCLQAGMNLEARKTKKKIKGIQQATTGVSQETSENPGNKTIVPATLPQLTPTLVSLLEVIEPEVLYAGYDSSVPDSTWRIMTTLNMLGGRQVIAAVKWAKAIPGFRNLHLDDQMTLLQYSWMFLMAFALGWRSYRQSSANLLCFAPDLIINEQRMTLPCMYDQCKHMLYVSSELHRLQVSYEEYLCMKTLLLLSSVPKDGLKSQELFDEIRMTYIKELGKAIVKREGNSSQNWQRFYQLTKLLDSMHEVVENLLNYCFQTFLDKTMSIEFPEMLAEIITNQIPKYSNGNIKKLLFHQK
Briefly: Glucocorticoid Receptor Binding Assay (II), fluorescence polarization competitor kit (Fluormone GS1). Particulars: GR Binding Assay (II). The protocol:
Glucocorticoid Receptor Binding Assay (II)^b
In order to measure the binding of compounds on the glucocorticoid receptor a commercially available kit was used (Glucocorticoid receptor competitor assay kit, PanVera Co., Madison, Wis., P2816). Briefly, a cell lysate containing recombinantly expressed human full-length glucocorticoid receptor was mixed with a fluorescently labeled glucocorticoid (1 nM Fluormone GS1) in the presence or absence of test compound. After one hour at room temperature, the fluorescence polarization (FP) of the samples were measured.
A general note: Polarisation of emitted light reports the rotation of a fluorescent probe.
By Ki is commonly meant the equilibrium dissociation constant of an inhibitor or competing ligand from its target. `CC(C)(C(=O)Nc1nncs1)C(c1ccccc1)c1ccc(N)cc1` (stereo not shown) [Example 252, 3-(4-aminophenyl)-2,2-dimethyl-3-phenyl-N-1,3,4-thiadiazol-2-ylpropanamide] came in with a Ki of 60.5 nM.

On to `CC(=O)Oc1ccc([C@@H](c2ccccc2)C(C)(C)C(=O)Nc2nccs2)cc1` [Example 360, 4-((1R)-2,2-Dimethyl-3-oxo-1-phenyl-3-(1,3-thiazol-2-ylamino)propyl)phenyl acetate], for which the Ki was found to be 21.7 nM.

Turning to `Cc1cnc(NC(=O)C(C)(C)[C@@H](c2ccccc2)c2ccc(O)cc2)s1` [Example 331, (3S)-3-(4-hydroxyphenyl)-2,2-dimethyl-N-(5-methyl-1,3-thiazol-2-yl)-3-phenylpropanamide], the inhibition constant (Ki) was 18.8 nM.

Turning to `CC(=O)Nc1ccc(C(c2ccccc2)C(C)(C)C(=O)Nc2nncs2)cc1` (stereo not shown) [Example 246, 3-(4-(acetylamino)phenyl)-2,2-dimethyl-3-phenyl-N-1,3,4-thiadiazol-2-ylpropanamide], affinity was put at a Ki of 1500 nM.

For the molecule `CC(C)(C(=O)Nc1nccs1)[C@@H](c1ccccc1)c1cccc(O)c1` [Example 327, 3-(3-hydroxyphenyl)-2,2-dimethyl-3-phenyl-N-1,3-thiazol-2-ylpropanamide], the Ki was determined as 90.9 nM.

On to `CC(C)(C(=O)Nc1nncs1)C(c1ccccc1)c1cccc(Br)c1` (stereo not shown) [Example 312, 3-(3-bromophenyl)-2,2-dimethyl-3-phenyl-N-1,3-thiadiazol-2-ylpropanamide], for which the affinity, expressed as Ki, was 19.9 nM.

With `CC(C)(C(=O)Nc1nccs1)C(c1ccccc1)c1ccc(N2CCC(O)CC2)cc1` (stereo not shown) [Example 242, 3-(4-(4-hydroxy-1-piperidinyl)phenyl)-2,2-dimethyl-3-phenyl-N-1,3-thiazol-2-ylpropanamide], the affinity, expressed as Ki, was 9.6 nM.

In turn, `CC(C)(C(=O)Nc1nccs1)C(c1ccccc1)c1cccc(C#N)c1` (stereo not shown) [Example 313, 3-(3-cyanophenyl)-2,2-dimethyl-3-phenyl-N-1,3-thiazol-2-ylpropanamide] registered a Ki of 57.6 nM.

In turn, `COc1ccc([C@@H](c2ccccc2)C(C)(C)C(=O)NC2CC2)cc1` [Example 270, (3R)-N-cyclopropyl-2,2-dimethyl-3-(4-(methyloxy)phenyl)-3-phenylpropanamide] had a Ki of 2000 nM.

Turning to `COc1ccc([C@H](c2ccccc2)C(C)(C)C(=O)Nc2nncs2)cc1` [Example 275], the affinity corresponds to a Ki of 51.9 nM.

As for `CC(C)(C)OC(=O)N1CCN(c2ccc(C(c3ccccc3)C(C)(C)C(=O)Nc3nccs3)cc2)CC1` (stereo not shown) [Example 239, 2,2-dimethylethyl 4-(4-(2,2-dimethyl-3-oxo-1-phenyl-3-(1,3-thiazol-2-ylamino)propyl)phenyl)-1-piperazinecarboxylate], affinity was put at a Ki of 324 nM.

Turning to `CC(C)(C(=O)Nc1nccs1)C(c1ccccc1)c1ccc(Br)c(F)c1` (stereo not shown) [Example 314, 3-(4-bromo-3-fluorophenyl)-2,2-dimethyl-3-phenyl-N-1,3-thiazol-2-ylpropanamide], the Ki was determined as 13.2 nM.

In the case of `COc1ccc(C(c2ccc(OC)cc2)C(C)(C)C(=O)Nc2nccs2)cc1` [Example 69, 2,2-dimethyl-3,3-bis(4-(methyloxy)phenyl)-N-1,3-thiazol-2-ylpropanamide], the Ki was 67.2 nM.

With `Cc1csc(NC(=O)C(C)(C)[C@H](c2ccccc2)c2ccc(O)cc2)n1` [Example 330, (3R)-3-(4-hydroxyphenyl)-2,2-dimethyl-N-(4-methyl-1,3-thiazol-2-yl)-3-phenylpropanamide], the inhibition constant (Ki) stood at 169 nM.

Take `Cc1ccc(CNc2ccc(C(c3ccccc3)C(C)(C)C(=O)Nc3nncs3)cc2)cc1` (stereo not shown) [Example 240, 2,2-dimethyl-3-(4-(((4-methylphenyl)methyl)amino)phenyl)-3-phenyl-N-1,3,4-thiadiazol-2-ylpropanamide]: the Ki is 18.6 nM.

`CC(C)(C(=O)Nc1nccs1)C(C)(c1ccccc1)c1ccc(N2CCOCC2)cc1` (stereo not shown) [Example 249, 2,2-dimethyl-3-(4-(4-morpholinyl)phenyl)-3-phenyl-N-1,3-thiazol-2-ylbutanamide]: affinity was put at a Ki of 181 nM.

Values taken from US7968577B2 (Bristol-Myers Squibb Company, priority 2006, dated 2011).
